Data published in ChEMBL document CHEMBL1146619, “The design and synthesis of guanosine compounds with in vitro activity against the colon cancer cell line SW480: non-taxane derived mimics of taxol?” (Bioorg Med Chem Lett, 2003).

test system: SW480; assay: In vitro anti-cancer activity against the colon cancer cell line SW480 was determined; type: functional, cell-based; conditions: Homo sapiens

Q: How did the IC50 turn out when `COc1ccc(C(Nc2nc(O)c3ncn(C4OC(COC(=O)[C@@H]5OC(C)(C)N(C(C)=O)[C@H]5c5ccccc5)C5OC(C)(C)OC54)c3n2)(c2ccccc2)c2ccccc2)cc1` (stereo not given in full) was run?
A: 19.9 µM

Q: With `CC(=O)N1[C@@H](c2ccccc2)[C@H](C(=O)OCC2OC(n3cnc4c(O)nc(NC(=O)C(C)C)nc43)C3OC(C)(C)OC23)OC1(C)C` (stereo not given in full) as the molecule, how does the IC50 read?
A: 192 µM

Q: How did the IC50 turn out when `COc1ccc(C(Nc2nc(O)c3ncn(C4OC(COC(=O)[C@@H]5OC(C)(C)N(C(=O)c6ccccc6)[C@H]5c5ccccc5)C5OC(C)(C)OC54)c3n2)(c2ccccc2)c2ccccc2)cc1` (stereo not given in full) was run?
A: 152 µM

Q: For `CC(C)C(=O)Nc1nc(O)c2ncn(C3OC(COC(=O)[C@@H]4OC(C)(C)N(C(=O)c5ccccc5)[C@H]4c4ccccc4)C4OC(C)(C)OC43)c2n1` (stereo not given in full), which IC50 is on record?
A: 222 µM

Q: `CC(=O)O[C@H]1C(=O)[C@@]2(C)[C@H]([C@H](OC(=O)c3ccccc3)[C@]3(O)C[C@H](OC(=O)[C@H](O)[C@@H](NC(=O)c4ccccc4)c4ccccc4)C(C)=C1C3(C)C)[C@]1(OC(C)=O)CO[C@@H]1C[C@@H]2O` [PACLITAXEL] was tested. Which IC50 did it give?
A: 0.312 µM
